Measurements as given in ChEMBL document CHEMBL3797079, “Synergistic reduction of HIV-1 infectivity by 5-azacytidine and inhibitors of ribonucleotide reductase” (Bioorg Med Chem, 2016).
Activity calls are given as the source filed them. No cut-off for these calls is given here.

Assays:
[1] = tested on: Human immunodeficiency virus 1; assay: Potentiation of 5-Aza-C-induced antiviral activity against VSV-G pseudotyped HIV-1 NL4-3 infected in human U373-MAGI cells assessed as reduction in gag level at 50 uM after 2 to 72 hrs by qPCR method; format: functional, organism-based
[2] = tested on: Human immunodeficiency virus 1; assay: Potentiation of 5-Aza-C-induced antiviral activity against VSV-G pseudotyped HIV-1 NL4-3 infected in human U373-MAGI cells assessed as Vif mutation at 50 uM incubated for 4 hrs preinfection followed by 5-Aza-C addition for 2 hrs preinfection and subsequent viral infection measured at 72 hrs post infection by illumina sequencing method (reference value: 19.2%); format: functional
U373-MAGI [3] = assay: Effect on 5-aza-dCTP level in human U373-MAGI cells at 200 uM preincubated for 2 hrs followed by 5-aza-dC addition measured after 4 hrs by LC-MS/MS analysis; format: functional, cell-based
U373-MAGI [4] = assay: Reduction in dRGU-TP level in human U373-MAGI cells at 200 uM preincubated for 2 hrs followed by 5-aza-C addition measured after 4 hrs by LC-MS/MS analysis; format: functional, cell-based
[5] = tested on: Human immunodeficiency virus 1; assay: Antiviral activity against VSV-G pseudotyped HIV-1 NL4-3 infected in human U373-MAGI cells assessed as Gag mutation at 50 uM incubated for 4 hrs prior to infection measured at 72 hrs post infection by illumina sequencing method (reference value: 18.4%); format: functional
U373-MAGI [6] = assay: Reduction in dRGU-TP level in human U373-MAGI cells at 50 uM preincubated for 2 hrs followed by 5-aza-C addition measured after 4 hrs by LC-MS/MS analysis; format: functional, cell-based

Oc1ccc(/C=C/c2cc(O)cc(O)c2)cc1 [RESVERATROL]
Activity [1]: Active | Activity [2]: 22.6% | Activity (U373-MAGI [3]): inactive | Activity (U373-MAGI [4]): Active | Activity [5]: 16.6% | Activity (U373-MAGI [6]): inactive
